# According to PMC8032624, “Prediction of dose-dependent in vivo acetylcholinesterase inhibition by profenofos in rats and humans using physiologically based kinetic (PBK) modeling-facilitated reverse dosimetry” (Archives of Toxicology, 2021):
# Assays:
# [1] = in vitro; type: in vitro ADME, human; conditions: for Vmax / Km: conversion of profenofos to BCP; for Km: pH 7.4
# Experimental: Incubations of profenofos with rat and human liver microsomes, liver cytosol and plasma were performed to quantify in vitro rates of BCP formation. Conditions were optimized to be linear for metabolite formation with regard to incubation time and microsomal, cytosolic and plasma protein concentration (data not shown). The final incubations were carried out in 100 mM Tris HCl (pH 7.4, 37 °C) containing (final concentrations) 5 mM MgCl2, 2 mM CaCl2 [to stimulate PON1 activity (Carr et al. [2015])], 2 mM NADPH (cofactor to also include CYP-mediated metabolism), enzyme preparation (final concentration 2 mg/ml for human liver microsomes and cytosol and 4.4 mg/ml for human plasma; 0.5 mg/ml for rat microsomes and cytosol and 1.65 mg/ml for rat plasma) and profenofos (at final concentrations ranging from 1 to 100 μM, added from 100 times concentrated stock solutions in DMSO). Control incubations were performed in the absence of microsomes, cytosol or plasma. After 2 min pre-incubation, the reaction was initiated by adding the substrate and mixtures were incubated for 2 min in a 37 °C water bath. The total volume of the incubation mixtures was 200 μl. The reaction was terminated by the addition of 50 μl ice cold ACN and samples were kept on ice. The mixture was centrifuged at 14,000g for 20 min at 4 °C and the supernatant was analyzed using UPLC-UV.
# All samples from incubations were analyzed using a Waters Acquity UPLC H class system that consisted of a quaternary solvent manager, a sample manager, and a photodiode array (PDA) detector, equipped with a Water Acquity UPLC® BEH C18 column (1.7 μm, 2.1 × 50 mm) and Waters Xbridge UPLC® BEH C18 pre-column (2.5 μM, 2.1 × 5 mm). The temperature of the column was kept at 40 °C and the auto sampler at 10 °C during the UPLC analysis. The mobile phases used for the analysis consisted of (A) 0.1% TFA in nanopure water and (B) 100% ACN. A gradient elution at a flow rate of 0.6 ml/min was applied for the analysis with the initial condition of 100% A:0% B (v/v), changing in a linear way to 0% A:100% B from 0 to 6 min, which was maintained for 30 s, and then changed back to the initial conditions in 30 s, which were maintained for 1 min. The injection volume for each sample was 3.5 μl.
# Under these conditions, the retention times of profenofos and BCP were 4.76 and 3.37 min, respectively. The amounts of profenofos and BCP were quantified by integrating the peak areas at 237 nm using calibration curves that were prepared using commercially available standards.
# Kinetic parameters including the apparent maximum velocity (Vmax) and the apparent Michaelis–Menten constant (Km) for BCP formation were obtained by fitting the data for the substrate concentration-dependent rate of conversion (expressed in nmol/min/mg protein) using GraphPad Prism 5, version 5.04 (San Diego, California, USA) to the standard Michaelis–Menten equation: V=Vmax∗S/(Km+S) in which the S represents the concentration of substrate, expressed in μM, V and Vmax the velocity and the maximum velocity of the reaction, respectively, expressed in nmol/min/mg protein, and Km the apparent Michaelis–Menten constant, expressed in μM. The kinetic parameter values for conversion of profenofos to BCP in the liver microsomes, liver cytosol and plasma were determined. To determine the catalytic efficiency, Vmax was divided by the Km.
# [2] = system: AChE; test: PBK modeling-facilitated reverse dosimetry and BMD modelling of predicted AChE inhibition in humans; set-up: species or system human
# Text: In the present study, it was assumed that in vivo dose-dependent AChE inhibition (in blood) depends on the maximum concentration (Cmax) of profenofos reached in the blood. For adequate PBK modeling-facilitated reverse dosimetry, the active (unbound) concentration of a test chemical in the in vitro test system should be linked to the in vivo freely available chemical at the target site. This is important since it is assumed that it is the fraction unbound that causes the effect (AChE inhibition). In the in vitro incubations, a very low concentration of BSA (0.1 mg/mL) is present. Heilmair et al. ([2008]) reported that with such low BSA concentrations, the free concentration of chlorpyrifos oxon is not affected. Furthermore, Rosenfeld and Sultatos ([2006]) found no evidence of binding of paraoxon by BSA even at a higher concentration (1 mg/ml) during incubations. Based on these observations, no significant effect on the free fraction of profenofos in the in vitro AChE inhibition studies is expected, which corroborated with estimations on profenofos binding in the in vitro incubations with help of the online simcyp tool (https://www.certara.com/software/pbpk-modeling-and-simulation/).
# By calculating with the PBK model, the external dose required to reach (as unbound Cmax) the concentrations applied in the in vitro test, each in vitro concentration was translated into an in vivo dose. […]
# [3] = system: brain AChE; test: In vivo brain AChE inhibition in rats, single exposure (JMPR); conditions: rat
# Text: To evaluate the performance of the PBK modeling-facilitated reverse dosimetry approach to predict in vivo AChE inhibition, the predicted dose–response curve for rat AChE inhibition upon exposure to profenofos was compared with available in vivo data on AChE inhibition in rats (JMPR [2007]). Furthermore, the predicted dose–response data were used for BMD modeling, using EFSA PROAST version 69.0 (https://shiny-efsa.openanalytics.eu/app/bmd) using the model averaging approach to allow evaluation of the prediction by comparison of BMDL10 values obtained from the predicted dose–response data to points of departure derived by regulatory bodies (EPA [2016]; JMPR [2007], EFSA [2019]). To that end, the obtained BMDL10 values were compared with a reported BMDL10 value from a rat study on profenofos-induced RBC AChE inhibition, which was recently used to obtain an ARfD by the US EPA (EPA [2016]), and a reported NOAEL value on profenofos-induced rat brain acetylcholinesterase inhibition, which has been used to obtain an ARfD by JMPR ([2007]).
# [4] = system: brain cholinesterase; conditions: based on NOAEL in a dog study, brain cholinesterase inhibition; ref EFSA [2019]; cited from earlier work
smiles,measurement,setting,value
"CCCSP(=O)(OCC)Oc1ccc(Br)cc1Cl (stereo not drawn) [profenofos, O-(4-bromo-2-chlorophenyl) O-ethyl S-propyl phosphorothioate]",Vmax,[1]; human liver cytosol,1.1 nmol/min/mg cytosolic protein
same,Vmax,[1]; human liver microsomes,1.2 nmol/min/mg microsomal protein
same,Vmax,[1]; human plasma,0.99 nmol/min/mg plasma protein
same,"Catalytic efficiency, fold lower for human than rat liver cytosol",[1]; human vs rat liver cytosol,3.8 fold
same,"Km, fold higher for human than rat liver cytosol",[1]; human vs rat liver cytosol,4.1 fold
same,"Vmax, fold higher for human than rat liver cytosol",[1]; human vs rat liver cytosol,1.1 fold
same,"Catalytic efficiency, fold lower in human than rat liver microsomes",[1]; human vs rat liver microsomes,6.5 fold
same,"Km, fold lower in human than rat liver microsomes",[1]; human vs rat liver microsomes,1.2 fold
same,"Vmax, fold lower in human than rat liver microsomes",[1]; human vs rat liver microsomes,7.7 fold
same,"Catalytic efficiency, fold lower for human than rat plasma",[1]; human vs rat plasma,32 fold
same,"Km, fold higher for human than rat plasma",[1]; human vs rat plasma,44 fold
same,"Vmax, fold higher for human than rat plasma",[1]; human vs rat plasma,1.5 fold
same,Km,[1]; human liver cytosol,1.4 µM
same,Km,[1]; human liver microsomes,6.9 µM
same,Km,[1]; human plasma,158 µM
same,Interspecies difference in predicted BMDL10 (rat vs human),[2],45 fold
same,JMPR NOAEL relative to US EPA BMDL10,[3],50 fold
same,ARfD,[4],0.005 mg/kg bw
